{
  "source": "ChEMBL document CHEMBL4732064",
  "about": "“Structure-activity relationship studies of phenothiazine derivatives as a new class of ferroptosis inhibitors together with the therapeutic effect in an ischemic stroke model” (Eur J Med Chem, 2021)",
  "key": {"HT-1080 [1]": {"tested_on": "HT-1080", "assay": "Downregulation of GPX4 expression in erastin-induced human HT-1080 cell ferroptosis model at 0.01 to 1 uM after 10 hrs by Western blot analysis", "type": "functional", "settings": "dose 0.01-1 µM"}, "HT-1080 [2]": {"tested_on": "HT-1080", "assay": "Inhibition of staurosporine-induced apoptotic cell death in human HT-1080 cells assessed as cell viability at 10 uM", "type": "functional, cell-based"}, "HT-1080 [3]": {"tested_on": "HT-1080", "assay": "Inhibition of erastin-induced ferroptosis in human HT-1080 cells assessed as cell viability incubated for 48 hrs by MTT assay", "type": "functional, cell-based", "settings": "HT-1080, 48 h"}, "HT-1080 [4]": {"tested_on": "HT-1080", "assay": "Increase in GSH level in erastin-induced human HT-1080 cell ferroptosis model at 0.01 to 1 uM", "type": "functional", "settings": "dose 0.01-1 µM"}, "[5]": {"target": "Bifunctional arginine demethylase and lysyl-hydroxylase JMJD6 (Homo sapiens, UniProt Q6NYC1)", "assay": "Inhibition of JMJD6 (unknown origin)"}, "HT-1080 [6]": {"tested_on": "HT-1080", "assay": "Inhibition of rotenone-induced oxidative cell death in human HT-1080 cells at 10 uM incubated for 24 hrs", "type": "functional, cell-based"}, "[7]": {"target": "Histamine H1 receptor (Homo sapiens) (UniProt P35367)", "sequence (P35367 whole entry)": "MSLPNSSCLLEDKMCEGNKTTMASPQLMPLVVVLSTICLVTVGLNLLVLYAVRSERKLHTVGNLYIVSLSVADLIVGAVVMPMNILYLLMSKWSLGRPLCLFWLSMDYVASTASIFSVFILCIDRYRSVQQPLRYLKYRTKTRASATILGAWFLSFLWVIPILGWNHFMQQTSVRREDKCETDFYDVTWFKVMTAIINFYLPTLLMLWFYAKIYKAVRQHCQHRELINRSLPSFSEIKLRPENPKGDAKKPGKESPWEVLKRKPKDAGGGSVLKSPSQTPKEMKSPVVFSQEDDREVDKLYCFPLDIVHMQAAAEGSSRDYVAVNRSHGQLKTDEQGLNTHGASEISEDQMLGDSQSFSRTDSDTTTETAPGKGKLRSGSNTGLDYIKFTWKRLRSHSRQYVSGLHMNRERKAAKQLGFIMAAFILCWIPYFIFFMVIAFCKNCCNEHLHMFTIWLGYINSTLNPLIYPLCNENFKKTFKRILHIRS", "assay": "Antagonist activity at H1 (unknown origin) by FLIPR assay"}, "Calu-1": {"tested_on": "Calu-1", "assay": "Antioxidant activity in erastin-induced human Calu-1 cell ferroptosis model assessed as decrease in cytosolic ROS accumulation at 0.01 to 1 uM incubated for 8 to 24 hrs by DCFH-DA staining based assay", "type": "functional", "settings": "dose 0.01-1 µM, time 8-24 hrs"}, "Rattus norvegicus [8]": {"tested_on": "Rattus norvegicus", "assay": "Protective activity in Sprague-Dawley rat model of middle cerebral artery occlusion-induced ischemia-reperfusion injury assessed as reduction in MDA level at 5 mg/kg, iv measured after 24 hrs of post reperfusion […]", "type": "functional, organism-based"}, "BXPC-3": {"tested_on": "BXPC-3", "assay": "Inhibition of erastin-induced ferroptosis in human BXPC-3 cells assessed as cell viability incubated for 48 hrs by MTT assay", "type": "functional, cell-based", "settings": "BXPC-3, 48 h"}, "HT-1080 [9]": {"tested_on": "HT-1080", "assay": "Inhibition of LOX expression in erastin-induced human HT-1080 cell ferroptosis model at 0.01 to 1 uM after 10 hrs by Western blot analysis", "type": "functional", "settings": "dose 0.01-1 µM"}, "[10]": {"target": "T1, Alpha-1B adrenergic receptor (Homo sapiens) (UniProt P35368)", "T1 sequence (whole entry)": "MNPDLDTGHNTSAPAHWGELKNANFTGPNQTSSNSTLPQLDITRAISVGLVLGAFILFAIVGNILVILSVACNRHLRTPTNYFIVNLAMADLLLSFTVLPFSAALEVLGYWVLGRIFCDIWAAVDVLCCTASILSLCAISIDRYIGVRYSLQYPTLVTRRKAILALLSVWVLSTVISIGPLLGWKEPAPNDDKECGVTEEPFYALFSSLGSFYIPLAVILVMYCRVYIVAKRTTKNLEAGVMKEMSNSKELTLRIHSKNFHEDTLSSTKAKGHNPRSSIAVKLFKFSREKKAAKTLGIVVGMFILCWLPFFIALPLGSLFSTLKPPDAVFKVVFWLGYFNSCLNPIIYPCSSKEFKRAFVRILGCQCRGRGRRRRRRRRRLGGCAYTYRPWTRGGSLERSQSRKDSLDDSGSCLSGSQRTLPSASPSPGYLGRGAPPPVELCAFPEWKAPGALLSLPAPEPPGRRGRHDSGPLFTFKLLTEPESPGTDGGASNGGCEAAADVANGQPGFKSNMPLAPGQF", "assay": "Antagonist activity at ADRA1B (unknown origin) by FLIPR assay"}, "THP-1": {"tested_on": "THP-1", "assay": "Protection against nigericin-induced pyroptosis in human THP-1 cells assessed as cell viability at 10 uM", "type": "functional, cell-based"}, "[11]": {"target": "Muscarinic acetylcholine receptor M3 (Homo sapiens) (UniProt P20309)", "sequence (P20309 whole entry, looked up)": "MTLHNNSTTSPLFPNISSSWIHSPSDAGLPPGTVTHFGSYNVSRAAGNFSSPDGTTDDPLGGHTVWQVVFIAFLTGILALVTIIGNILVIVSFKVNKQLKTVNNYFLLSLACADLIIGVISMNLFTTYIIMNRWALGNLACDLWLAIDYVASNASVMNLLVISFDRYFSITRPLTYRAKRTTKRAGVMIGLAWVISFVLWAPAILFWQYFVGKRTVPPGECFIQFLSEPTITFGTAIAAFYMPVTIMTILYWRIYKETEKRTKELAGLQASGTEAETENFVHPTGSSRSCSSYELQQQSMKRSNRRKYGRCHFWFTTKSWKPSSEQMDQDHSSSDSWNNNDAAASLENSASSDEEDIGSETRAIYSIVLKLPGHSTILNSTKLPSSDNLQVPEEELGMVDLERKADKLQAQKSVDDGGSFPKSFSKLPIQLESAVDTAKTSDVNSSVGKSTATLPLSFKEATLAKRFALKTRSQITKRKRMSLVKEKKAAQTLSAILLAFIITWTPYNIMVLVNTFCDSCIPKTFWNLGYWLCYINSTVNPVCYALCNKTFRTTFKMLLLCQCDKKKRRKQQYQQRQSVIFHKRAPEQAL", "assay": "Antagonist activity at CHRM3 (unknown origin) by FLIPR assay"}, "Rattus norvegicus [12]": {"tested_on": "Rattus norvegicus", "assay": "Protective activity in Sprague-Dawley rat model of middle cerebral artery occlusion-induced ischemia-reperfusion injury assessed as increase in GSH level at 5 mg/kg, iv measured after 24 hrs of post reperfusion […]", "type": "functional, organism-based"}},
  "note": "pEC50, pIC50: −log10 of the molar value. Active and inactive are the calls of the source. The calls are words filed in the database; no cut-off is given here.",
  "data": [
    {"smiles": "CC(c1ccc(N2CCN(C)CC2)cc1)c1ccc2c(c1)Nc1ccccc1S2", "note": "(stereo not given)", "values": [
      {"measurement": "Activity", "setting": "HT-1080 [1]", "result": "inactive"},
      {"measurement": "Activity", "setting": "HT-1080 [2]", "result": "inactive"},
      {"measurement": "pEC50", "setting": "HT-1080 [3]", "result": 9.30},
      {"measurement": "Activity", "setting": "HT-1080 [4]", "result": "Active"},
      {"measurement": "pIC50", "setting": "[5]", "result": "< 5.00"},
      {"measurement": "inhibition", "setting": "HT-1080 [6]", "result": "inactive"},
      {"measurement": "Activity", "setting": "[7]", "result": "inactive"},
      {"measurement": "Activity", "setting": "Calu-1", "result": "Active"},
      {"measurement": "Activity", "setting": "Rattus norvegicus [8]", "result": "Active"},
      {"measurement": "pEC50", "setting": "BXPC-3", "result": 8.53},
      {"measurement": "inhibition", "setting": "HT-1080 [9]", "result": "inactive"},
      {"measurement": "Activity", "setting": "[10]", "result": "inactive"},
      {"measurement": "Activity", "setting": "THP-1", "result": "inactive"},
      {"measurement": "Activity", "setting": "[11]", "result": "inactive"},
      {"measurement": "Activity", "setting": "Rattus norvegicus [12]", "result": "Active"}
    ]}
  ]
}
